In PubChem BioAssay (NCI):
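All cell lines were grown in 96-well plates and treated with compound for 48 hours. Here, GI50 denotes the concentration required for 50% inhibition of growth. TGI: total growth inhibition.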

What was measured:
Assay in all cases: NCI tumour cell line growth inhibition, 48 h
[1] = system: HCT-15 colon
[2] = system: LOX IMVI melanoma
[3] = system: NCI/ADR-RES ovarian
[4] = system: OVCAR-3 ovarian
[5] = system: OVCAR-4 ovarian
[6] = system: SK-MEL-28 melanoma
[7] = system: SW-620 colon
[8] = system: T-47D breast
[9] = system: TK-10 renal
[10] = system: U251 CNS

## Nc1nc(N)c2nn(-c3ccc(C(=O)O)cc3)nc2n1
[1]
  TGI: > 100 µM
[2]
  TGI: > 100 µM
[3]
  TGI: > 100 µM
[4]
  TGI: > 100 µM
[5]
  TGI: > 100 µM
[6]
  TGI: > 100 µM
[7]
  TGI: > 100 µM
[8]
  TGI: > 100 µM
[9]
  TGI: > 100 µM
[10]
  TGI: > 100 µM

## CC(=O)OC1C(OC/C2=C/C3[C@@H](C(C)C)CC=C(C)[C@@H]3CC(OC(=O)/C=C/c3cn(C)cn3)[C@]3(C)C=C[C@@]2(O)O3)OCC(O)C1O (stereo not given in full)
[1]
  GI50: 1.2 µM
  TGI: > 50 µM
[2]
  GI50: 0.0234 µM
  TGI: > 50 µM
[3]
  GI50: 4.81 µM
  TGI: > 39.4 µM
[4]
  GI50: 0.0105 µM
  TGI: 0.0268 µM
[5]
  GI50: 0.0586 µM
  TGI: > 50 µM
[6]
  GI50: 0.0389 µM
  TGI: > 50 µM
[7]
  GI50: 0.0188 µM
  TGI: > 50 µM
[8]
  GI50: 0.0219 µM
  TGI: > 50 µM
[9]
  GI50: 0.465 µM
  TGI: > 50 µM
[10]
  GI50: 0.016 µM
  TGI: > 30.3 µM

## C=CC(=O)N1CC[C@@H](Oc2nc(Nc3ccc(N4CCC(N5CCN(C)CC5)CC4)cc3)c(C(N)=O)nc2CC)C1
[1]
  GI50: > 100 µM
  TGI: > 100 µM
[2]
  GI50: > 100 µM
  TGI: > 100 µM
[3]
  GI50: > 100 µM
  TGI: > 100 µM
[4]
  GI50: > 100 µM
  TGI: > 100 µM
[5]
  GI50: > 100 µM
  TGI: > 100 µM
[6]
  GI50: > 100 µM
  TGI: > 100 µM
[7]
  GI50: > 100 µM
  TGI: > 100 µM
[8]
  GI50: > 100 µM
  TGI: > 100 µM
[9]
  GI50: > 100 µM
  TGI: > 100 µM
[10]
  GI50: > 100 µM
  TGI: > 100 µM

## COc1cc2c(cc1Nc1nc(Nc3ccsc3C(N)=O)c3cc[nH]c3n1)N(C(=O)CN(C)C)CCC2
[1]
  GI50: 1.87 µM
  TGI: > 25 µM
[2]
  GI50: 0.58 µM
  TGI: 3.66 µM
[3]
  GI50: 4.75 µM
  TGI: > 25 µM
[4]
  GI50: 0.618 µM
  TGI: 2.13 µM
[5]
  GI50: 2.98 µM
  TGI: 9.03 µM
[6]
  GI50: 1.8 µM
  TGI: 5.69 µM
[7]
  GI50: 0.0726 µM
  TGI: > 25 µM
[8]
  GI50: 3.87 µM
  TGI: 9.65 µM
[9]
  GI50: 1.46 µM
  TGI: 6.27 µM
[10]
  GI50: 1.14 µM
  TGI: 12.8 µM

## N#Cc1ccccc1C#C/C=C\C#Cc1cnccn1
[1]
  GI50: 20.6 µM
  TGI: > 61 µM
[2]
  GI50: > 21.1 µM
  TGI: > 60.9 µM
[3]
  GI50: 4.32 µM
  TGI: > 30.6 µM
[4]
  GI50: 1.22 µM
  TGI: 18.3 µM
[5]
  GI50: 36 µM
  TGI: > 100 µM
[6]
  GI50: 35.2 µM
  TGI: > 100 µM
[7]
  GI50: 5.85 µM
  TGI: > 41.9 µM
[8]
  GI50: > 66.3 µM
  TGI: > 100 µM
[9]
  GI50: 13 µM
  TGI: 63.6 µM
[10]
  GI50: 30.5 µM
  TGI: > 100 µM

## COc1cc(C2C3=C(COC3=O)N(CCO)c3cc4c(cc32)CCC4)cc(OC)c1OC (stereo not given)
[1]
  GI50: 0.199 µM
  TGI: > 32.5 µM
[2]
  GI50: 0.166 µM
  TGI: > 32.5 µM
[3]
  GI50: 0.709 µM
  TGI: 4.45 µM
[4]
  GI50: 0.0595 µM
  TGI: 0.129 µM
[5]
  GI50: 0.14 µM
  TGI: > 20.9 µM
[6]
  GI50: 1.24 µM
  TGI: > 32.5 µM
[7]
  GI50: 0.126 µM
  TGI: > 32.5 µM
[8]
  GI50: > 32.5 µM
  TGI: > 32.5 µM
[9]
  GI50: 1.56 µM
  TGI: > 32.5 µM
[10]
  GI50: 0.125 µM
  TGI: > 32.5 µM

## COc1ccc(N2CCN(CC(=O)N3CCN(c4nnc(-c5ccc(Cl)cc5)c(-c5ccc(Cl)cc5)n4)CC3)CC2)cc1
[1]
  GI50: 6.8 µM
  TGI: > 100 µM
[2]
  GI50: 7.76 µM
  TGI: > 100 µM
[3]
  GI50: > 100 µM
  TGI: > 100 µM
[4]
  GI50: 11.3 µM
  TGI: > 100 µM
[5]
  GI50: 8.8 µM
  TGI: > 100 µM
[6]
  GI50: 96.8 µM
  TGI: > 100 µM
[7]
  GI50: 46.3 µM
  TGI: > 100 µM
[8]
  GI50: 3.64 µM
  TGI: > 100 µM
[9]
  GI50: 9.18 µM
  TGI: > 100 µM
[10]
  GI50: 10.6 µM
  TGI: > 100 µM

## COc1ccc(/C=C2\CC(C)CC3C2=NN(C(C)=O)C3c2ccc(OC)c(OC)c2)cc1OC (stereo not given)
[1]
  GI50: 15.4 µM
  TGI: 32.8 µM
[2]
  GI50: 17.7 µM
  TGI: 34.8 µM
[3]
  GI50: 12.8 µM
  TGI: 43 µM
[4]
  GI50: 18 µM
  TGI: 46 µM
[5]
  GI50: 19.7 µM
  TGI: 84.3 µM
[6]
  GI50: 21.8 µM
  TGI: 46.9 µM
[7]
  GI50: 26.1 µM
  TGI: 67.1 µM
[8]
  GI50: 2.68 µM
  TGI: 9.42 µM
[9]
  GI50: 65 µM
  TGI: > 100 µM
[10]
  GI50: 14.3 µM
  TGI: 28 µM

## N#Cc1c(-c2ccc(Cl)cc2)n([O-])c2ccccc2[n+]1=O
[1]
  GI50: 13.7 µM
  TGI: 37.5 µM
[2]
  GI50: 5.72 µM
  TGI: 20.3 µM
[3]
  GI50: 4.05 µM
  TGI: 16.1 µM
[4]
  GI50: 1.27 µM
  TGI: 2.88 µM
[5]
  GI50: 2.94 µM
  TGI: 8.82 µM
[6]
  GI50: 44.8 µM
  TGI: > 100 µM
[7]
  GI50: 12.7 µM
  TGI: 34.1 µM
[8]
  GI50: 6.47 µM
  TGI: 25.8 µM
[9]
  GI50: 11.7 µM
  TGI: 24.6 µM
[10]
  GI50: 4.37 µM
  TGI: 17.1 µM

## C/C=C\C(C)=C/C(C)C(=O)CC(O)CC1CC(=O)NC(=O)C1 (stereo not given)
[1]
  TGI: > 100 µM
[2]
  TGI: > 100 µM
[3]
  TGI: 48.2 µM
[4]
  TGI: > 100 µM
[5]
  TGI: > 100 µM
[6]
  TGI: > 100 µM
[7]
  TGI: > 100 µM
[8]
  TGI: > 100 µM
[9]
  TGI: > 100 µM
[10]
  TGI: > 100 µM

## C#Cc1cccc(NC(=O)Nc2cccc(NC(=O)CCl)c2)c1
[1]
  GI50: 11.8 µM
  TGI: 26.7 µM
[2]
  GI50: 13.2 µM
  TGI: 27 µM
[3]
  GI50: 20.1 µM
  TGI: 75.7 µM
[4]
  GI50: 14.6 µM
  TGI: 36.5 µM
[5]
  GI50: 12 µM
  TGI: 29.5 µM
[6]
  GI50: > 82.5 µM
  TGI: > 82.5 µM
[7]
  GI50: 16.9 µM
  TGI: 37.3 µM
[8]
  GI50: 32.1 µM
  TGI: > 82.5 µM
[9]
  GI50: 38 µM
  TGI: > 82.5 µM
[10]
  GI50: 16.4 µM
  TGI: 39.3 µM
